{
  "source": "patent US6893633B2",
  "about": "“Methods and compositions for promoting the maturation of monocytes” (Maxim Pharmaceuticals, Inc., priority 2000, dated 2005)",
  "key": {"[1]": {"tested_on": "prostate cancer", "conditions": "histamine dihydrochloride 4 mg/day with CSF 300,000 U/kg/day and IL-12 100,000 U/kg/day", "experimental": "A subject presenting with prostate cancer is administered 300,000 U/kg/day of CSF, 100,000 U/kg/day of IL-12, and histamine dihydrochloride at a dose of 4 mg/day."}, "[2]": {"tested_on": "monocytes HLA-DR expression"}, "[3]": {"tested_on": "CD3+ T cells, CD3-/56+ NK cells, and CD3+/56+ NK/T cells", "conditions": "apoptosis induced by autologous MO or GR; p<0.001", "description": "(§1) In human liver, NK-cells as well as NK/T-cells are much more abundant than in peripheral blood. […] All data are the mean±s.e.m. (n=15-30 blood donors)."}, "[4]": {"tested_on": "CD86 antigen on human monocytes", "test": "CD86 antigen expression on human monocytes after treatment with histamine and/or GM-CSF", "type": "cell-based", "description": "Separation of monocytes. […] Hospital, Göteborg, Sweden. […] Treatment and cell staining."}, "[5]": {"tested_on": "NK cells", "conditions": "human, 25 μM", "description": "as §1"}, "[6]": {"tested_on": "T cells", "conditions": "human, 25 μM", "description": "as §1"}, "[7]": {"tested_on": "NK/T cells", "conditions": "human, 25 μM", "description": "as §1"}, "[8]": {"tested_on": "metastatic melanoma of the liver", "conditions": "histamine phosphate 10 mg/day with G-CSF 200,000 U/kg/day", "experimental": "A subject presenting with metastatic melanoma of the liver is administered 200,000 U/kg/day of G-CSF and histamine phosphate at a dose of 10 mg/day."}, "[9]": {"tested_on": "Plasmodia species", "test": "Treatment of malaria infection", "type": "in vivo", "conditions": "serotonin 6 mg/day with GM-CSF 100,000 U/kg/day, parenteral", "experimental": "A subject presenting with malaria is parenterally administered GM-CSF at a rate of 100,000 U/kg/day and serotonin at a dosage of 6 mg/day. The composition acts to enhance monocyte maturation, thereby allowing the subject's immune system to eradicate cells infected with Plasmodia species. Specifically, serotonin enhances the monocyte maturation-promoting activity of […]. An increase in the number of dendritic cells presenting antigens associated with Plasmodia is observed. T-cells recognize the Plasmodia antigens, as foreign, attack, and kill the cells. The number of infected cells decreases."}, "[10]": {"tested_on": "malignant melanoma", "conditions": "melanoma patients with stage III or stage IV disease; cited from earlier work"}},
  "data": [
    {"compound": "Cl.Cl.NCCc1c[nH]cn1", "note": "[histamine, histamine dihydrochloride]", "values": [
      {"measurement": "tumor mass", "setting": "[1]", "value": "decrease"},
      {"measurement": "monocytes HLA-DR expression", "setting": "[2]", "value": "up-regulated"},
      {"measurement": "prevention of apoptosis in all cell types", "setting": "[3]", "value": "significantly prevented"},
      {"measurement": "intensity of cell surface expression of CD86", "setting": "[4]; histamine treatment alone", "value": "moderately enhanced"}
    ]},
    {"compound": "OO", "note": "[hydrogen peroxide]", "values": [
      {"measurement": "NK cells that became apoptotic", "setting": "[5]", "value": "65±7", "unit": "%"},
      {"measurement": "T cells that became apoptotic", "setting": "[6]", "value": "35±5", "unit": "%"},
      {"measurement": "NK/T cells that became apoptotic", "setting": "[7]", "value": "78±7", "unit": "%"}
    ]},
    {"compound": "NCCc1c[nH]cn1.O=P(O)(O)O", "note": "[histamine phosphate]", "values": [
      {"measurement": "tumor mass", "setting": "[8]", "value": "decrease"}
    ]},
    {"compound": "NCCc1c[nH]c2ccc(O)cc12", "note": "[serotonin]", "values": [
      {"measurement": "number of dendritic cells presenting antigens associated with Plasmodia", "setting": "[9]", "value": "increase"},
      {"measurement": "number of infected cells", "setting": "[9]", "value": "decreases"}
    ]},
    {"compound": "granulocyte-macrophage colony-stimulating factor [GM-CSF]", "values": [
      {"measurement": "median survival time vs matched control patients", "setting": "[10]", "value": "increased by a factor of three"},
      {"measurement": "mean of the monocytes that expressed CD86", "setting": "[4]; overnight incubation (16 hrs), GM-CSF 0.15 μg/ml, histamine dihydrochloride 10 μM", "value": 88, "unit": "%"}
    ]}
  ]
}
